The text below walks through data of publication doi:10.1101/2024.08.19.608619, “Discovery of potent SARS-CoV-2 nsp3 macrodomain inhibitors uncovers lack of translation to cellular antiviral response” (bioRxiv, 2024).

The structures appear in SMILES notation. Where two headings read alike, the source gives them in different places.

One data set deals with Vero E6/TMPRSS2. Briefly: Vero E6/TMPRSS2 cytotoxicity with P-gp inhibitor. It counts as cell-based. Particulars: for perc_max_measured: highest measured response of the dose series; for perc_min_measured: lowest measured response of the dose series. The text has this:
Supplement media-1.zip/Cytotoxicity.csv, table | column: cc10; cc50; perc_min_measured; perc_max_measured

Another data set concerns the target T1, MAPKAP-K2(h) (Homo sapiens, UniProt P49137).
T1 construct: gene MAPKAPK2
The data set is described as follows: biochemical. Also noted: In vitro kinase panel profiling, per cent remaining kinase activity at 10 uM. Particulars: atp_concentration=90, read-out: % of control remaining. The text has this:
(§1) We derisk potential for off-target activity by profiling the compound in a CEREP panel, a standard secondary pharmacology assessment, as well as a kinase panel to derisk a potential hinge-binding motif in our leads, and a PARP panel to derisk activity against human […]. Reassuringly, the compounds are selective, with the only off-targets being moderate human CHRM2 and KOR receptors activity associated with ASAP-0011198.

A further data set concerns the target CDK6/cyclinD3(h) (Homo sapiens, UniProt Q00534). Briefly: biochemical. Also noted: In vitro kinase panel profiling, per cent remaining kinase activity at 10 uM. Particulars: atp_concentration=200, read-out: % of control remaining.
Excerpt: as §1

The target in the next data set is T2, ASK1(h) (Homo sapiens, UniProt Q99683).
T2 construct: gene MAP3K5
T2 sequence (Q99683 1-1374): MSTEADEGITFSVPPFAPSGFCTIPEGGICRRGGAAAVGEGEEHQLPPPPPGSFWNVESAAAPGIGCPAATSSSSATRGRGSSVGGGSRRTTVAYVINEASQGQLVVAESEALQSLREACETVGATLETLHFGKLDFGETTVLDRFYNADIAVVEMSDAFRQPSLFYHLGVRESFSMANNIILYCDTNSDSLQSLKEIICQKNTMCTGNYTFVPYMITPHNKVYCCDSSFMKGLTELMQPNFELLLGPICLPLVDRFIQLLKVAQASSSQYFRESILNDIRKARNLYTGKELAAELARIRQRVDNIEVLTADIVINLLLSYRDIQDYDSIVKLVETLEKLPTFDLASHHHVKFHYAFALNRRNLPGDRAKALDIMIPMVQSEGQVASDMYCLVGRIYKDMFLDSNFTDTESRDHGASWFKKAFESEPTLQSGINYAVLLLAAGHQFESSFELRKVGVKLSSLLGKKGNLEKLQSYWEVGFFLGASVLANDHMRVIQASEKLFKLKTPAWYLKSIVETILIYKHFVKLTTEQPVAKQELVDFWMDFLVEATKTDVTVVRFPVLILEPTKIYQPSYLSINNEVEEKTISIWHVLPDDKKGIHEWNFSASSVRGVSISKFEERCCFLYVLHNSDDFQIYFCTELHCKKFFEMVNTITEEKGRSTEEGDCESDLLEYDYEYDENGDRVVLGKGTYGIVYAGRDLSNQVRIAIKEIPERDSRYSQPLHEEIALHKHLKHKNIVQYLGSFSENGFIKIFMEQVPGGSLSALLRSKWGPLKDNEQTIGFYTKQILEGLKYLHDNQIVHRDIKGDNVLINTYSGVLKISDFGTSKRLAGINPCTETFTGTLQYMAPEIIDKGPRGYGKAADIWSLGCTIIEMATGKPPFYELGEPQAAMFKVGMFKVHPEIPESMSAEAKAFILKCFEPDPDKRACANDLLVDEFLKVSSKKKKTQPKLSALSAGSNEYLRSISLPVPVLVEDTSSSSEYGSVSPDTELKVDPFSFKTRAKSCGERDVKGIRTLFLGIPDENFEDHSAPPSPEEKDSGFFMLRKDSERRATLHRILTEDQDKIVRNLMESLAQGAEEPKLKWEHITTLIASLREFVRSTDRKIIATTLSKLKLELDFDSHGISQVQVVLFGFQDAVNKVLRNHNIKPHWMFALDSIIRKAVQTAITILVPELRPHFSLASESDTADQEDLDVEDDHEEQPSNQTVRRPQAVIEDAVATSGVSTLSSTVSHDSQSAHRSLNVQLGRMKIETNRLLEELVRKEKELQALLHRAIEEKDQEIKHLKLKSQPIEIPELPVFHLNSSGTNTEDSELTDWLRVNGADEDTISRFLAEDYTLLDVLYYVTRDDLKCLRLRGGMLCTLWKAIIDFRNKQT
Briefly: biochemical. Particulars: atp_concentration=200, read-out: % of control remaining. More on the design: In vitro kinase panel profiling, per cent remaining kinase activity at 10 uM.
Excerpt: as §1

Another data set addresses T3, ETA (h) (Homo sapiens, UniProt P25101).
T3 construct: purchased Eurofins Cerep (SafetyScreen44), recognised from the panel format
T3 sequence (P25101 21-427): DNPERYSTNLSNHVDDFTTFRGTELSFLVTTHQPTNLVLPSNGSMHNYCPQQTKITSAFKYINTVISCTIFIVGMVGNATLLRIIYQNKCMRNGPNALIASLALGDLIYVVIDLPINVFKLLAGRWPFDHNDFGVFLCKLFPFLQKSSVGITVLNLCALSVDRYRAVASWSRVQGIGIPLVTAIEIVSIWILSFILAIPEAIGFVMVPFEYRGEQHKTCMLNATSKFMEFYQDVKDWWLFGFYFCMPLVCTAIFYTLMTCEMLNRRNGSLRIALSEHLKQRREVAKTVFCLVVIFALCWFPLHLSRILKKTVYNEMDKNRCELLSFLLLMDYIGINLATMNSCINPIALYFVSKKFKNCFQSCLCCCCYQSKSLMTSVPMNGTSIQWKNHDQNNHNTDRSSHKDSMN
The data set is described as follows: In vitro CEREP profiling, ETA (h) (agonist radioligand). It counts as binding. Particulars: test compound 10 uM. The text has this:
(§2) Supplement media-1.zip/Safety_Panel_Profile.csv, table | column: perc_inhibition

A short description of data set [1]: In vitro rat hepatocyte stability. It counts as in vitro ADME. The text has this: Supplement media-1.zip/Hepatocyte_Stability.csv, table | column: clint; t_half
The target in the next data set is T4, CB2 (h) (Homo sapiens, UniProt P34972).
T4 construct: purchased Eurofins Cerep (SafetyScreen44), recognised from the panel format
T4 sequence (P34972 whole entry): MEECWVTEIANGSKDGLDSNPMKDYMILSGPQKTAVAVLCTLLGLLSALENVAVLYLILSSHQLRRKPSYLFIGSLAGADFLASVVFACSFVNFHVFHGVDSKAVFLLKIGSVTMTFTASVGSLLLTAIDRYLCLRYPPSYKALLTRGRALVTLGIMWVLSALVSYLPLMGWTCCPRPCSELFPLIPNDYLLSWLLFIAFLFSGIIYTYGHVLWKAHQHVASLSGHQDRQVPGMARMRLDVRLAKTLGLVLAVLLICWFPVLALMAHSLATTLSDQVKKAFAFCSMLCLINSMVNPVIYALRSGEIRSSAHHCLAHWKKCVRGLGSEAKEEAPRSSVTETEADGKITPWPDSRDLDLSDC
The data set is described as follows: In vitro CEREP profiling, CB2 (h) (agonist radioligand). It counts as binding. Particulars: test compound 10 uM.
Excerpt: as §2

A further data set deals with T5, H1 (h) (Homo sapiens, UniProt P35367).
T5 construct: purchased Eurofins Cerep (SafetyScreen44), recognised from the panel format
T5 sequence (P35367 whole entry): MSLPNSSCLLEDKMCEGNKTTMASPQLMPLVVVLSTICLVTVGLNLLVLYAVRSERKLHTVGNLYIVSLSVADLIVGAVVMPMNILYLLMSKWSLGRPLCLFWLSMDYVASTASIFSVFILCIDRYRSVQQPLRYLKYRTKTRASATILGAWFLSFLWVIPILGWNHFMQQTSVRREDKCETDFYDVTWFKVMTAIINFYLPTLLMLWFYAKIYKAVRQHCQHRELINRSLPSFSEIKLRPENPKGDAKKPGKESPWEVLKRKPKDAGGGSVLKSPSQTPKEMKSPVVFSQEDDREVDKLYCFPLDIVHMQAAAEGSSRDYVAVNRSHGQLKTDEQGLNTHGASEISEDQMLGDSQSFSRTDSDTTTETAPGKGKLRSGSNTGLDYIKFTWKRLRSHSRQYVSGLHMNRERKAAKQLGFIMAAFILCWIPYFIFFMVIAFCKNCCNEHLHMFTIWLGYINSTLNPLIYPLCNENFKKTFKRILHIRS
The data set is described as follows: In vitro CEREP profiling, H1 (h) (antagonist radioligand). Particulars: test compound concentration 10 uM. It counts as binding.
Excerpt: as §2

CDK6/cyclinD3(h), sequence (Q00534 whole entry): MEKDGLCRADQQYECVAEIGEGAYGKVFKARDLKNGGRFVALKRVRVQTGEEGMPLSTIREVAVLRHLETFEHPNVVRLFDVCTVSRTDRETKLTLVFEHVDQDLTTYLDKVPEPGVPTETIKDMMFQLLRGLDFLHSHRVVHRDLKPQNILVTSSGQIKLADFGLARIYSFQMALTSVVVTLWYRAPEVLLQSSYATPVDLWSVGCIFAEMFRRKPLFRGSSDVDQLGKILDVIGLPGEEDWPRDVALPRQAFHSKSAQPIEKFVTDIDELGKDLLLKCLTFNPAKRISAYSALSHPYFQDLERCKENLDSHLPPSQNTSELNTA
CDK6/cyclinD3(h), sequence (P30281 whole entry partner): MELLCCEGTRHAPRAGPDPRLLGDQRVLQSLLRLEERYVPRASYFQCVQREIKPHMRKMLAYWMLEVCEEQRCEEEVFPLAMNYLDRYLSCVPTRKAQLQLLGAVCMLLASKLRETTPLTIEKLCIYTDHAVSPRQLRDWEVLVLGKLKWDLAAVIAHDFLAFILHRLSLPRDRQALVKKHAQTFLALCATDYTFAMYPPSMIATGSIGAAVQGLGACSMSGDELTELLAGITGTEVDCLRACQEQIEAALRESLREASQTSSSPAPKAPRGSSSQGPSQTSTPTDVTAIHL
T1 sequence (P49137 whole entry): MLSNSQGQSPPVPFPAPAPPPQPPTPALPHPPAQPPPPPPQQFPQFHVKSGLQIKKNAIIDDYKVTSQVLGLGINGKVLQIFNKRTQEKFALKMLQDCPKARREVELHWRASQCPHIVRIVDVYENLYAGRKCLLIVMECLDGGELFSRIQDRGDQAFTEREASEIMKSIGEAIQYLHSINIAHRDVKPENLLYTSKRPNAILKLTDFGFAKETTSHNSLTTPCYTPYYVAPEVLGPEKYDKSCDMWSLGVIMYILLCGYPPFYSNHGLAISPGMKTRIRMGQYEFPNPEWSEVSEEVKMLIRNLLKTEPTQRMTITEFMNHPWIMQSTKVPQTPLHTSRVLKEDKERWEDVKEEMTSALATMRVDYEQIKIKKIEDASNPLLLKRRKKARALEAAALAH

Consider `C[C@H](C(=O)O)[C@@H](NC(=O)c1ncnc2[nH]ccc12)c1ccc(Br)cc1` [ASAP-0014722], for which, in the data set with Vero E6/TMPRSS2, the CC50 (as a rule, the concentration that lowers cell viability or growth by half) was more than 5 µM; the cc10 is more than 5.0 µM; the perc_max_measured is recorded as 112.113%; the perc_min_measured is 82.421%. In addition, the remaining activity at 10 µM at MAPKAP-K2(h) (batch_name=ASAP-0014722-002) stood at 98%. For the same molecule, the remaining activity at 10 µM at CDK6/cyclinD3(h) (batch_name=ASAP-0014722-002) came to 97%. The remaining activity at 10 µM on ASK1(h) (batch_name=ASAP-0014722-002) turned out to be 102%. Further, the “perc_inhibition (% inhibition of the binding of a ligand specific for each target)” value at ETA (h) is given as -2%. In data set [1], this molecule returned a clint of less than 3.0 uL/min/1E6 cells and a t_half of more than 231.0 min. For the same molecule, the “perc_inhibition (% inhibition of the binding of a ligand specific for each target)” value at CB2 (h) is on record as -5%. Further, at H1 (h), the “perc_inhibition (% inhibition of the binding of a ligand specific for each target)” value is -8%.

For the molecule `CC(C)[C@H](Nc1ncnc2[nH]c(-c3cnn(C)c3C#N)cc12)c1ccc2c(n1)OCCO2` [ASAP-0010715], in the data set on Vero E6/TMPRSS2, the CC50 was more than 5 µM. Moreover, in the data set with Vero E6/TMPRSS2, the cc10 was more than 5.0 µM. The molecule also returned a perc_max_measured in the data set with Vero E6/TMPRSS2 of 109.412%. In the data set on Vero E6/TMPRSS2, the perc_min_measured is given as 72.414%. Further, the remaining activity at 10 µM at MAPKAP-K2(h) (batch_name=ASAP-0010715-002) amounted to 115%; on CDK6/cyclinD3(h) (batch_name=ASAP-0010715-002), 102%; on ASK1(h) (batch_name=ASAP-0010715-002), 106%. Also, the “perc_inhibition (% inhibition of the binding of a ligand specific for each target)” value on ETA (h) came out at 42%; at CB2 (h), 44%; on H1 (h), 5%. The clint in data set [1] was 87.5 uL/min/1E6 cells. In data set [1], this molecule showed a t_half of 7.92 min.

In the data set on Vero E6/TMPRSS2, `COc1ccc([C@H](Cc2nnn[nH]2)NC(=O)c2ncnc3[nH]ccc23)cc1` [ASAP-0015381] returned a CC50 of more than 5 µM, a cc10 of more than 5.0 µM, a perc_max_measured of 119.979% and a perc_min_measured of 89.804%. The remaining activity at 10 µM on MAPKAP-K2(h) (batch_name=ASAP-0015381-001) was determined as 102%. Further, the remaining activity at 10 µM on CDK6/cyclinD3(h) (batch_name=ASAP-0015381-001) was 102%. The remaining activity at 10 µM at ASK1(h) (batch_name=ASAP-0015381-001) was 103%. Moreover, on ETA (h), the “perc_inhibition (% inhibition of the binding of a ligand specific for each target)” value turned out to be 2%. In data set [1], this molecule displayed a clint of less than 3.0 uL/min/1E6 cells and a t_half of more than 231.0 min. In addition, the “perc_inhibition (% inhibition of the binding of a ligand specific for each target)” value at CB2 (h) is recorded as -11%. Further, the “perc_inhibition (% inhibition of the binding of a ligand specific for each target)” value on H1 (h) is listed as -4%.
